Experiments:
Meloidogyne incognita = assay: Meloidogyne test; type: in vivo; conditions: 20 ppm, after 2 weeks, lettuce in sand
Method: To produce a suitable preparation of active compound, 1 part by weight of active compound is mixed with the stated amounts of solvent and emulsifier, and the concentrate is diluted with water to the desired concentration.
Containers are filled with sand, solution of active compound, Meloidogyne incognita egg/larvae suspension and lettuce seeds. The lettuce seeds germinate and the plants develop. Galls form on the roots.
After 2 weeks, the nematicidal activity is determined by the gall formation in %. 100% means that no galls have been found; 0% activity means that the number of galls on the treated plants corresponds to that of the untreated control.

[1] = log P determination by HPLC (EEC directive 79/831 Annex V.A8); type: physicochemical; conditions: pH 2.3; HPLC gradient method, acetonitrile/0.1% aqueous phosphoric acid
Method: [The log P values were determined in accordance with EEC directive 79/831 Annex V.A8 by HPLC (gradient method, acetonitrile/0.1% aqueous phosphoric acid)]

SMILES: C/C(=N\C#N)NC(C)C1CCCCC1 (stereo not drawn) [Example 1, R-(−)-N-cyano-N′-cyclohexyl-eth-1-yl-ethane-imid-amide]
- kill (nematicidal activity by gall formation) (Meloidogyne incognita): 100%
- chromatographic logP [1]: 2.19

Source: US6806292B2, “Substituted imide derivatives” (Bayer Aktiengesellschaft, priority 2000, dated 2004)
